Here are results for four compounds from PMC9917560, “Design, Synthesis and Antimicrobial Evaluation of New N-(1-Hydroxy-1,3-dihydrobenzo[c][1,2]oxaborol-6-yl)(hetero)aryl-2-carboxamides as Potential Inhibitors of Mycobacterial Leucyl-tRNA Synthetase” (International Journal of Molecular Sciences, 2023).

Holding throughout (format): cell-based
Assay [1] concerns Lichtheimia corymbifera CCM 8077. Put plainly: Antifungal microdilution broth (EUCAST). Conditions: for MIC: read-out: MIC (visual detection). A general note: Dilution methods test growth across graded concentrations, often in twofold steps.
For assay [2], the system named is Candida parapsilosis CCM 8260 (ATCC 22019). Put plainly: Antifungal microdilution broth (EUCAST). Conditions: Lodderomyces parapsilosis; for MIC: read-out: MIC (visual detection).
Assay [3] relates to Candida tropicalis CCM 8264 (ATCC 750). Nature of the assay: Antifungal microdilution broth (EUCAST). Conditions: for MIC: read-out: MIC (visual detection).
For assay [4], the system named is Candida albicans CCM 8320 (ATCC 24433). Put plainly: Antifungal microdilution broth (EUCAST). Conditions: for MIC: read-out: MIC (visual detection).
Assay [5] deals with Candida krusei CCM 8271 (ATCC 6258). Put plainly: Antifungal microdilution broth (EUCAST). As to conditions: Pichia kudriavzevii; for MIC: read-out: MIC (visual detection).
Assay [6] relates to Aspergillus fumigatus ATCC 204305. Put plainly: Antifungal microdilution broth (EUCAST). Conditions: for MIC: read-out: MIC (visual detection).
Assay [7] concerns Trichophyton interdigitale CCM 8377 (ATCC 9533). Nature of the assay: Antifungal microdilution broth (EUCAST). As to conditions: for MIC: read-out: MIC (visual detection).
For assay [8], the system named is Aspergillus flavus CCM 8363. Put plainly: Antifungal microdilution broth (EUCAST). As to conditions: for MIC: read-out: MIC (visual detection).
Assay [9] concerns Mycolicibacterium smegmatis DSM 43,465 (ATCC 607). Nature of the assay: Antimycobacterial microdilution (resazurin) vs M. smegmatis. As to conditions: Middlebrook 7H9, resazurin, read-out: MIC M. smeg.
Assay [10] concerns Mycobacterium kansasii DSM 44,162 (ATCC 12478). Nature of the assay: Antimycobacterial microdilution (resazurin) vs M. kansasii. As to conditions: Middlebrook 7H9, resazurin, read-out: MIC M. kansasii.
Assay [11] has as its system Mycobacterium tuberculosis H37Rv CNCTC My 331/88 (ATCC 27294). Put plainly: Microplate Alamar Blue assay vs Mtb H37Rv. As to conditions: Mycobacterium tuberculosis, pH 6.6, MABA, Middlebrook 7H9 pH 6.6, recalculated from µg/mL; read-out: MIC Mtb H37Rv.
The subject of assay [12] is Mycobacterium tuberculosis H37Ra ITM-M006710 (ATCC 9431). Put plainly: Antimycobacterial microdilution (resazurin) vs Mtb H37Ra. As to conditions: Middlebrook 7H9, resazurin, recalculated from µg/mL, read-out: MIC Mtb H37Ra.
In assay [13] the test system is Mycolicibacterium aurum DSM 43,999 (ATCC 23366). Nature of the assay: Antimycobacterial microdilution (resazurin) vs M. aurum. As to conditions: Middlebrook 7H9, resazurin, read-out: MIC M. aurum.
Assay [14] relates to Mycobacterium avium DSM 44,156 (ATCC 25291). Put plainly: Antimycobacterial microdilution (resazurin) vs M. avium. As to conditions: Mycobacterium avium, Middlebrook 7H9, resazurin; read-out: MIC M. avium.
The test system of assay [15] is Acinetobacter baumannii DSM 30007 (ATCC 19606). Nature of the assay: Antibacterial microdilution broth (EUCAST). Conditions: 24 h.
Assay [16] relates to Klebsiella pneumoniae CCM 4415 (ATCC 10031). Put plainly: Antibacterial microdilution broth (EUCAST). As to conditions: Klebsiella pneumoniae.
The subject of assay [17] is Staphylococcus aureus subsp. aureus CCM 4223 (ATCC 29213). Put plainly: Antibacterial microdilution broth (EUCAST).
Assay [18] concerns methicillin-resistant Staphylococcus aureus subsp. aureus (MRSA) CCM 4750 (ATCC 43300). Put plainly: microbe, parasite or virus in culture. As to conditions: 24 h.
Assay [19] deals with Pseudomonas aeruginosa CCM 3955 (ATCC 27853). Nature of the assay: Antibacterial microdilution broth (EUCAST).
The subject of assay [20] is Staphylococcus epidermidis CCM 4418 (ATCC 12228). Nature of the assay: Antibacterial microdilution broth (EUCAST).
Assay [21] relates to Escherichia coli CCM 3954 (ATCC 25922). Put plainly: Antibacterial microdilution broth (EUCAST). As to conditions: Escherichia coli.
Assay [22] has as its system Enterococcus faecalis CCM 4224 (ATCC 29212). Nature of the assay: Antibacterial microdilution broth (EUCAST). As to conditions: 24 h.
[23] abbreviates: 24 h, read-out: IC50 (spectrophotometric detection, 530 nm).
[24] abbreviates: read-out: MIC (spectrophotometric detection, 530 nm).
The mark [25] stands for this setting: read-out: MIC (visual detection).

≈ marks a conversion by molar mass, not a printed value. Read-outs that look alike come from different tables or passages of the source.

Usually IC90 stands for the concentration at which the effect reaches the 90% level. As to `C[C@@H]1[C@H](O)[C@@H](C)/C=C/C=C/C=C/C=C/C=C/C=C/C=C/[C@H](O[C@@H]2O[C@H](C)[C@@H](O)[C@H](N)[C@@H]2O)C[C@@H]2O[C@](O)(C[C@@H](O)C[C@@H](O)[C@H](O)CC[C@@H](O)C[C@@H](O)CC(=O)O[C@H]1C)C[C@H](O)[C@H]2C(=O)O` [amphotericin B, reference compound], the IC90 in [1] (CCM8077, Lichtheimia corymbifera CCM 8077, 48 h, read-out: IC90 (spectrophotometric detection, 530 nm)) worked out at 1.08 µM; in assay [2] (Candida parapsilosis CCM 8260, 24 h, read-out: IC90 (spectrophotometric detection, 530 nm)), 0.541 µM; in assay [3] (ATCC 750 / CCM 8264 / CCM 8321, CCM 8321, 24 h, read-out: IC90 (spectrophotometric detection, 530 nm)), 1.08 µM; in assay [4] (Candida albicans CCM 8320, 24 h, read-out: IC90 (spectrophotometric detection, 530 nm)), 1.08 µM; in assay [5] (Candida krusei CCM 8271, 24 h, read-out: IC90 (spectrophotometric detection, 530 nm)), 1.08 µM; in [6] (ATCC204305, Aspergillus fumigatus ATCC 204305, 48 h, read-out: IC90 (spectrophotometric detection, 530 nm)), 4.33 µM. The IC90 in [7] (Trichophyton interdigitale CCM 8377, read-out: IC90 (spectrophotometric detection, 530 nm)) stood at 1.08 µM; in assay [8] (CCM8363, Aspergillus flavus CCM 8363, 48 h, read-out: IC90 (spectrophotometric detection, 530 nm)) it was 4.33 µM. Further, the MIC in [1] (CCM8077, Lichtheimia corymbifera CCM 8077, 48 h) was found to be 1.08 µM (≈ 1 µg/mL); in [2] (Candida parapsilosis CCM 8260, 24 h) it was 0.541 µM (≈ 0.5 µg/mL); in [3] (ATCC 750 / CCM 8264 / CCM 8321, CCM 8321, 24 h), 1.08 µM (≈ 1 µg/mL); in assay [4] (Candida albicans CCM 8320, 24 h), 1.08 µM (≈ 1 µg/mL); in assay [5] (Candida krusei CCM 8271, 24 h), 1.08 µM (≈ 1 µg/mL); in assay [6] (ATCC204305, Aspergillus fumigatus ATCC 204305, 48 h) it was 4.33 µM (≈ 4 µg/mL). In addition, the MIC in assay [7] (Trichophyton interdigitale CCM 8377) was found to be 1.08 µM (≈ 1 µg/mL); in assay [8] (CCM8363, Aspergillus flavus CCM 8363, 48 h), 4.33 µM (≈ 4 µg/mL).
The term IC50 denotes the concentration that gives 50% inhibition. Take `C[C@@H](c1ncncc1F)[C@](O)(Cn1cncn1)c1ccc(F)cc1F` [voriconazole, reference compound]: the IC50 is over 45.8 µM in assay [1] (Lichtheimia corymbifera, CCM8077, 48 h, read-out: IC50 (spectrophotometric detection, 530 nm)); 0.086 µM in [2] (setting [23]); 0.179 µM in [3] (ATCC 750 / CCM 8264 / CCM 8321, 24 h, read-out: IC50 (spectrophotometric detection, 530 nm)); 0.086 µM in [4] (Candida albicans, 24 h, read-out: IC50 (spectrophotometric detection, 530 nm)); 0.716 µM in assay [5] (setting [23]); 0.716 µM in assay [6] (Aspergillus fumigatus, ATCC204305, 48 h, read-out: IC50 (spectrophotometric detection, 530 nm)). Also, the IC50 in [7] (Trichophyton interdigitale, read-out: IC50 (spectrophotometric detection, 530 nm)) came out at 2.86 µM; in assay [8] (Aspergillus flavus, CCM8363, 48 h, read-out: IC50 (spectrophotometric detection, 530 nm)), 5.73 µM. The MIC in [1] (Lichtheimia corymbifera, CCM8077, 48 h) was over 45.8 µM; in assay [2] (24 h), over 45.8 µM; in assay [3] (ATCC 750 / CCM 8264 / CCM 8321, 24 h), over 45.8 µM; in [4] (Candida albicans, 24 h), over 45.8 µM; in assay [5] (24 h) it was over 45.8 µM; in assay [6] (Aspergillus fumigatus, ATCC204305, 48 h), 2.86 µM (≈ 1 µg/mL). Also, the MIC is over 45.8 µM in [7] (Trichophyton interdigitale) and over 45.8 µM in assay [8] (Aspergillus flavus, CCM8363, 48 h).
For the compound `O=C(O)c1cn(C2CC2)c2cc(N3CCNCC3)c(F)cc2c1=O` [CIP, ciprofloxacin, reference compound], the MIC was 0.19 µM (≈ 0.063 µg/mL) in assay [9]; 0.75 µM (≈ 0.249 µg/mL) in [10]; 0.6 µM (≈ 0.199 µg/mL) in assay [11]; 1.51 µM (≈ 0.5 µg/mL) in assay [12]; 0.05 µM (≈ 0.0166 µg/mL) in assay [13]; 1.51 µM (≈ 0.5 µg/mL) in assay [14].
With `CNC(C)C1CCC(N)C(OC2C(N)CC(N)C(OC3OCC(C)(O)C(NC)C3O)C2O)O1` (stereo not drawn) [gentamicin, reference compound], the MIC in [15] (setting [24]) worked out at 16.8 µM (≈ 8 µg/mL); in assay [15] (setting [25]), 16.8 µM (≈ 8 µg/mL); in [16] (K. pneumoniae CCM 4415, 95% growth inhibition, 24 h, read-out: MIC (spectrophotometric detection, 530 nm)) it was 1.05 µM (≈ 0.5 µg/mL); in assay [16] (K. pneumoniae CCM 4415, 24 h, read-out: MIC (visual detection)), 1.05 µM (≈ 0.5 µg/mL); in assay [17] (S. aureus CCM 4223, 95% growth inhibition, 24 h, read-out: MIC (spectrophotometric detection, 530 nm)), 2.09 µM (≈ 1 µg/mL); in [17] (S. aureus CCM 4223, 24 h, read-out: MIC (visual detection)), 1.05 µM (≈ 0.5 µg/mL). The MIC in assay [18] (setting [24]) was over 16.8 µM; in [18] (setting [25]) it was over 16.8 µM; in [19] (P. aeruginosa CCM 3955, 95% growth inhibition, 24 h, read-out: MIC (spectrophotometric detection, 530 nm)), 1.05 µM (≈ 0.5 µg/mL); in assay [19] (P. aeruginosa CCM 3955, 24 h, read-out: MIC (visual detection)) it was 1.05 µM (≈ 0.5 µg/mL); in assay [20] (S. epidermidis CCM 4418, 95% growth inhibition, 24 h, read-out: MIC (spectrophotometric detection, 530 nm)) it was 0.131 µM (≈ 0.0626 µg/mL); in assay [20] (S. epidermidis CCM 4418, 24 h, read-out: MIC (visual detection)), 0.131 µM (≈ 0.0626 µg/mL). For the same compound, the MIC in assay [21] (E. coli CCM 3954, 95% growth inhibition, 24 h, read-out: MIC (spectrophotometric detection, 530 nm)) was 2.09 µM (≈ 1 µg/mL); in assay [21] (E. coli CCM 3954, 24 h, read-out: MIC (visual detection)), over 2.09 µM; in assay [22] (setting [24]), over 16.8 µM; in assay [22] (setting [25]), over 16.8 µM.
